According to patent publication US10906876B2, “Tetrahydroisoquinolines as selective NADPH oxidase 2 inhibitors” (University of Pittsburgh—Of the Commonwealth System of …, priority 2013, dated 2021):

Assays:
[1] = target: T1, Bovine milk XO (Bos taurus, UniProt P80457); assay: Xanthine oxidase assay (Amplex Red); assay type: biochemical; conditions: compounds at 25 μM and 50 μM (FIG. 4)
T1 construct: Bovine milk XO (grade 1, ammonium sulfate suspension; Sigma-Aldrich); purchased Sigma-Aldrich; host or cells: bovine milk
T1 sequence (P80457 whole entry): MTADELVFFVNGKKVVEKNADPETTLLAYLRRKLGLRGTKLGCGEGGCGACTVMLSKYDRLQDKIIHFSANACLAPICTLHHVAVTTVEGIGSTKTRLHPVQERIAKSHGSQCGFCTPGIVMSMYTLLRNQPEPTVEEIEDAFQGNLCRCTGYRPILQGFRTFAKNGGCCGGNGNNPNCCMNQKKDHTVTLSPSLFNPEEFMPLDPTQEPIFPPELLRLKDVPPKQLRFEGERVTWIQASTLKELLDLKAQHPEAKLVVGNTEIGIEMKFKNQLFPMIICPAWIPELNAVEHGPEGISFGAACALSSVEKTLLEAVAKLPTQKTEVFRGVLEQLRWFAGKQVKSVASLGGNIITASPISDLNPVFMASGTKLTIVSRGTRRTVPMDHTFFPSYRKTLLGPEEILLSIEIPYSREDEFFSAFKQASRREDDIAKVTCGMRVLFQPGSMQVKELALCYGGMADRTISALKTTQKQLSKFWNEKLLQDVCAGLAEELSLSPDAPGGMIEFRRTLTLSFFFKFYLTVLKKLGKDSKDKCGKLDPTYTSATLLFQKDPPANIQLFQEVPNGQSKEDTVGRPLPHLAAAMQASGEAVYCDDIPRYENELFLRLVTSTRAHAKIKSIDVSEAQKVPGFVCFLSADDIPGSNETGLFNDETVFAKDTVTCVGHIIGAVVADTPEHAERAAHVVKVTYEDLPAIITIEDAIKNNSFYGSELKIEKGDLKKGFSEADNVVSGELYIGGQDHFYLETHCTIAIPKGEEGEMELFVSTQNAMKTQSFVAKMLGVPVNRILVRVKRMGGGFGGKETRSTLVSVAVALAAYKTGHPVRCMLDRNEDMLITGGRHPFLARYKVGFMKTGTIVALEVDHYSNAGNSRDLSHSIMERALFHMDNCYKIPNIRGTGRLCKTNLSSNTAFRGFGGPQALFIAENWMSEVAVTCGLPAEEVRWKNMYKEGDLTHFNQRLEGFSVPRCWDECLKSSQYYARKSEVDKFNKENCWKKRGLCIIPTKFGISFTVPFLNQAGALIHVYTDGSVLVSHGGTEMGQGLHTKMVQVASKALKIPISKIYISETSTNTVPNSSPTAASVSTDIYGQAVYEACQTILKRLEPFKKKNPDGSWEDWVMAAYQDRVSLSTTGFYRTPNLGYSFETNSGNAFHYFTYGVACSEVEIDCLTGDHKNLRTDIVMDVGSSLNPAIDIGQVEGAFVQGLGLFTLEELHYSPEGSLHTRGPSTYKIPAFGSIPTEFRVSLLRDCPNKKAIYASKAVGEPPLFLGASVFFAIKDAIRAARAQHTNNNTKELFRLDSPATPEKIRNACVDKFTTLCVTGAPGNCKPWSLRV
Experimental: Bovine milk XO (grade 1, ammonium sulfate suspension; Sigma-Aldrich) was first desalted using PD-10 columns (Sephadex G-25, GE Healthcare Biosciences, Piscataway, N.J.) equilibrated in PBS. XO activity was assayed by measuring H2O2 production using the Amplex® Red assay. Reaction mixture contained: 0.02 U/mL XO, 25 mM Hepes, pH 7.4, containing 0.12 M NaCl, 3 mM KCl, 1 mM MgCl2, 0.1 mM Amplex® Red, and 0.32 U/mL of horse radish peroxidase (HRP), reaction was initiated by addition of 1 mM hypoxanthine. Fluorescence was quantified over time using a Biotek Synergy 4 Hybrid Multi-Mode Microplate Reader.
Data are expressed as % of vehicle control.

[2] = target: T2, p47^phox association with Nox2 (cytochrome b558) (Homo sapiens, UniProt P14598); assay: Co-immunoprecipitation of Nox2/p47phox in Cos-Nox2 cells; assay type: cell-based; conditions: Cos-Nox2 cells pre-incubated with compound
T2 construct: expressed in transfected cells
T2 sequence (P14598 1-390): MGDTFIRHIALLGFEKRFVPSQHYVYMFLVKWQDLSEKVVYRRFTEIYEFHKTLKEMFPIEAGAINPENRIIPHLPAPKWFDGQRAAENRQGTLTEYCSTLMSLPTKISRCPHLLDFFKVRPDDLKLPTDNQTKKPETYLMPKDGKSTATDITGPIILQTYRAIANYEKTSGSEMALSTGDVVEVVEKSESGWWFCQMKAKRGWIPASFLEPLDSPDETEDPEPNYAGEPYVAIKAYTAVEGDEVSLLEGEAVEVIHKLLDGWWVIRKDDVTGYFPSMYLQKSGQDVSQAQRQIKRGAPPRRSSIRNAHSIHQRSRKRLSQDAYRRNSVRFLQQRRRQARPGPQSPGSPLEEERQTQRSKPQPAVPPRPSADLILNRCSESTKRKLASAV
Experimental: 300 μg of cell homogenates were diluted in 0.3 ml HBSS buffer and incubated with 1.25 μg of α-p47^phox antibody (Santa Cruz Biotechnology). After overnight incubation at 4° C. with constant agitation, 10 μl of Protein G-Agarose slurry were added to each sample to pull-down p47^phox: antibody complex. Beads were washed, boiled, run on PAGE-SDS gels and then blotted on nitrocellulose membrane. Western blot analysis was carried out using antibodies against p47^phox and Nox2. Bands were visualized using Odyssey software from Licor and then quantified using ImageJ software.
To interrogate a mode of Nox2 inhibition, in silico interaction analysis of pre-existing atomic structures was employed. […] To further investigate this type of interaction and inhibition, co-immunoprecipitation was used and p47^phox association with cytochrome b558 in Cos-Nox2 cells.

[3] = target: T3, Nox1 hybrid system (Homo sapiens, UniProt Q9Y5S8); assay: ROS production of transiently Nox1 hybrid system-transfected Cos cells treated with PMA; assay type: cell-based; conditions: 10 μM compound
T3 construct: Plasmids encoding full-length human cDNAs for Nox1 (pcDNA3.1-hNox1); expressed in transfected cells; host or cells: Cos cells, transient transfection
T3 sequence (Q9Y5S8 1-564): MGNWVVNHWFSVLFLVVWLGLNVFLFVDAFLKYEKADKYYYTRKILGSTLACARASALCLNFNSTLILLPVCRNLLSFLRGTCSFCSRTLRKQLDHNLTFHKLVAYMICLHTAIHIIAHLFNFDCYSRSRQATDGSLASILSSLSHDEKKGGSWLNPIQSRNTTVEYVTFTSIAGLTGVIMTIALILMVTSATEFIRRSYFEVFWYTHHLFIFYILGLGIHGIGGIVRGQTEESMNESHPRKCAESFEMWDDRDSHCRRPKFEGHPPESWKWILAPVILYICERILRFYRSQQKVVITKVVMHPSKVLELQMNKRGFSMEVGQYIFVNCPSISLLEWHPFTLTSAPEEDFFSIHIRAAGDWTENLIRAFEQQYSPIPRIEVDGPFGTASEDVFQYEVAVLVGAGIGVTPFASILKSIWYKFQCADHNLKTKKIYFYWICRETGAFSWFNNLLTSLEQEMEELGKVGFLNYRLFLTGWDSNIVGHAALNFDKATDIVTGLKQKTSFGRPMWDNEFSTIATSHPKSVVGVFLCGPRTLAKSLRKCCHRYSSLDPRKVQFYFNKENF
Experimental: Cell transfection was carried out using Lipofectamine LTX and Plus reagent (Invitrogen, Carlsbad, Calif., USA), according to the manufacturer's instructions. COS-22 cells were transiently co-transfected with pcDNA 3.1-hNox1, pCMVsport 6-hNOXA1 and pcDNA3.1-hNoxO1 (COS-Nox1/NOXO1/NOXA1 cells) or with pcDNA3.1/Hygro-hNox4 (COS-Nox4 cells). Cells were used 24 hr after transfection. Adherent cells were harvested by incubating with 0.05% trypsin/EDTA for 5 min at 37° C. Following addition of DMEM/10% FBS to neutralize the trypsin, the cells were pelleted by centrifugation at 1100×g for 5 min at 4° C. and used for the experiments.
Since p47^phox activation is important not only for Nox2 activity but also for Nox1 hybrid system present mainly in human endothelial cells, the effect of compounds 11g and 11h on ROS production of transiently Nox2-transfected (FIG. 13) or Nox1 hybrid system-transfected Cos cells (FIG. 14) treated with phorbol ester (PMA) was evaluated.

[4] = tested on: human pulmonary artery endothelial cells (HPAEC); assay: Superoxide production of HPAEC treated with high glucose; assay type: cell-based; conditions: 25 mM glucose 24 hr, 25 μM compound
Experimental: (§1) Cos-Nox2, Cos-Nox1, human fibroblasts were cultured in DMEM, 10% FBS-supplemented media, human pulmonary artery endothelial cells were cultured in EBM2media containing growth factors (Lonza) and rat neonatal cardiomyocytes were cultured in DMEM/F12 (50/50) media supplemented with 5% horse serum, 100 μM BrdU and Insulin-Transferrin-Selenium (ITS, Gibco).
Superoxide (O2^•−) production from cell homogenates was calculated from the initial linear rate (over 10 min) of SOD-inhibitable cytochrome c reduction quantified at 550 nm using the extinction coefficient of 21.1 mM-1 cm-1 (Biotek Synergy 4 Hybrid Multi-Mode Microplate Reader). The oxidase assay buffer consisted of 65 mM sodium phosphate buffer (pH 7.0), 1 mM EGTA, 10 μM FAD, 1 mM MgCl2, 2 mM NaN3 and 0.2 mM cytochrome C.
Compounds 11g and 11h subsequently were tested in parenchymal cell lines where more than one Nox could be present and activated. Human pulmonary artery endothelial cells (HPAEC) were treated with high glucose (25 mM) for 24 hr in the presence or absence of the compounds. […] Under these conditions both compounds 11g and 11h attenuated the high glucose-stimulated superoxide production (FIG. 9).

[5] = tested on: human pulmonary artery endothelial cells (HPAEC); assay: ROS production of HPAEC treated with angiotensin II; assay type: cell-based; conditions: angiotensin II 24 hrs, 25 μM compound, preliminary data
Experimental: as §1

SMILES	Effect on ROS production by xanthine oxidase [1]	Attenuation of PMA-promoted p47phox/Nox2 interaction (co-immunoprecipitation) [2] [%]	PMA-stimulated ROS production, Nox1 hybrid system-transfected Cos cells [3]	High glucose-stimulated superoxide production [4]	AngII-stimulated ROS production [5]
C=C(C)CC1C2c3c(Br)cccc3C(CC2(C)C)N1Cc1cccs1 (racemic) [Compound 11h, (±)-(1S,4R,9S)-5-Bromo-3,3-dimethyl-9-(2-methylallyl)-10-(thiophen-2-ylmethyl)-1,2,3,4-tetrahydro-1,4-(epiminomethano)naphthalene]	virtually no effect	33.45±6.08	did not significantly inhibit	attenuated	differential effect
C=C(C)CC1C2c3c(Br)cccc3C(CC2(C)C)N1CCCCC (racemic) [Compound 11g, (±)-(1S,4R,9S)-5-Bromo-3,3-dimethyl-9-(2-methylallyl-10-pentyl-1,2,3,4-tetrahydro-1,4-(epiminomethano)naphthalene]	virtually no effect	34.3±6.07	inhibited	attenuated	differential effect
